Measurements as given in patent US11780832B2, “Lactivicin compounds, their preparation and use as antibacterial agents” (priority 2021, dated 2023).
≈ marks a conversion by molar mass, not a printed value.

Key:
Assay type in all cases: cell-based
[1] = tested on: Klebsiella pneumoniae CMY-DHA; experiment: MIC against CMY-DHA producing strains, compound alone; conditions: row r32
Procedure: (§1) Gram-negative and Gram-positive bacterial strains used during the in vitro minimum inhibitory concentration (MIC) determination were obtained either from the American Type Culture Collection (ATCC) or from clinical specimens. All strains were characterized genotypically and the respective antibiotic resistance markers for each strain were identified.
(§2) Isolates were sub-cultured onto appropriate media and stocked in skim milk at −80° C. Following two subcultures from frozen stock, in vitro antimicrobial susceptibility testing was performed using the Clinical and Laboratory Standards Institute (CLSI) broth microdilution method. Briefly, fresh cultures were suspended in culture media to give a final stock inoculum size of 5×10^7 colony forming units per milliliter of broth (CFU/mL). Test compounds were prepared at a stock solution concentration equal to 128 μg/mL, then diluted to give a final an initial working concentration of 32 μg/mL. 100 μL of the stock solutions were added to the first wells in a 96-well plate and were then diluted using a 2-fold dilution method to give a range of 32-0.025 μg/mL. 100 μL of the bacterial suspensions were then added to the 96-well plates to give a final working inoculum size of 5×10^5 CFU/mL. The final compound concentration range was 16-0.0125 μg/mL. […] MICs for comparator agents were determined using custom-designed, in-house prepared 96-well broth microdilution panels.

[2] = tested on: Proteus mirabilis CMY-DHA; experiment: as above; conditions: row r36
Procedure: as §1, §2

Escherichia coli CMY-DHA = experiment: as above
Procedure: as §1, §2

[3] = tested on: Enterobacter cloacae species complex Elevated AmpC; experiment: Synergistic activity: MIC in the presence of Avibactam
Procedure: as §2
The same method used to test the activity of the claimed compounds was used to determine their synergistic activity when combined with a β-lactamase inhibitor except that either a fixed concentration or fixed ratio of a β-lactamase inhibitor was added to the 96-well plates prior to adding the bacteria cultures. Synergistic activity was defined as the reduction of MIC of a given compound when tested using the β-lactamase inhibitor versus testing the compound in the absence of a β-lactamase inhibitor.

[4] = tested on: Enterobacter cloacae species complex Elevated AmpC; experiment: MIC against Elevated AmpC producing strains, compound alone
Procedure: as §1, §2

[5] = tested on: Escherichia coli Elevated AmpC; experiment: as above
Procedure: as §1, §2

[6] = tested on: Citrobacter freundii species complex Elevated AmpC; experiment: as above; conditions: row r16
Procedure: as §1, §2

Escherichia coli SHV-12 = experiment: MIC, CLSI broth microdilution; conditions: SHV12
Outline: (§3)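 Genotyped isolates from ATCC or clinical sources were subcultured twice from −80 °C skim-milk stocks, then tested by CLSI broth microdilution. Compounds were serially diluted 2-fold to a final 16-0.0125 μg/mL, with a final inoculum of 5×10^5 CFU/mL.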

[7] = tested on: Enterobacter cloacae species complex NDM-1; experiment: MIC, CLSI broth microdilution
Outline: as §3

[8] = tested on: Escherichia coli CTX-M-15; experiment: MIC, CLSI broth microdilution; conditions: CTXM15
Outline: as §3

[9] = tested on: Pseudomonas aeruginosa ATCC 27853; experiment: MIC, CLSI broth microdilution; conditions: ATCC27853
Outline: as §3

Escherichia coli CMY-2 = experiment: MIC, CLSI broth microdilution; conditions: CMY2
Outline: as §3

[10] = tested on: Klebsiella aerogenes VIM-1, SHV-12; experiment: MIC, CLSI broth microdilution
Outline: as §3

[11] = tested on: Serratia marcescens AmpC overexpressed; experiment: MIC, CLSI broth microdilution
Outline: as §3

[12] = tested on: Pseudomonas aeruginosa OprD negative; experiment: MIC, CLSI broth microdilution
Outline: as §3

[13] = tested on: Klebsiella pneumoniae OXA-163, OXA-1_OXA-30, SHV-1, TEM-1; experiment: MIC, CLSI broth microdilution
Outline: as §3

[14] = tested on: Serratia marcescens SME-2; experiment: MIC, CLSI broth microdilution; conditions: SME2
Outline: as §3

[15] = tested on: Klebsiella oxytoca KPC-2, TEM-1; experiment: MIC, CLSI broth microdilution; conditions: KPC-2, TEM-1, read-out: MIC
Outline: as §3

[16] = tested on: Klebsiella pneumoniae KPC-2; experiment: MIC, CLSI broth microdilution; conditions: KPC2
Outline: as §3

[17] = tested on: Acinetobacter baumannii ATCC 19606; experiment: MIC, CLSI broth microdilution; conditions: ATCC19606
Outline: as §3

[18] = tested on: Citrobacter freundii species complex OXA-181; experiment: MIC, CLSI broth microdilution; conditions: Citrobacter freundii species complex, OXA-181; read-out: MIC
Outline: as §3

[19] = tested on: Klebsiella pneumoniae SHV-12; experiment: MIC, CLSI broth microdilution; conditions: SHV12, SHV-12, read-out: MIC
Outline: as §3

[20] = tested on: Klebsiella pneumoniae OXA-48, SHV-1; experiment: MIC, CLSI broth microdilution
Outline: as §3

[21] = tested on: Pseudomonas aeruginosa AmpC overexpressed; experiment: MIC, CLSI broth microdilution
Outline: as §3

[22] = tested on: Escherichia coli ATCC 25922; experiment: MIC, CLSI broth microdilution; conditions: ATCC25922
Outline: as §3

[23] = tested on: Klebsiella pneumoniae KPC-3; experiment: MIC, CLSI broth microdilution; conditions: KPC3, KPC-3, read-out: MIC
Outline: as §3

[24] = in the presence of Avibactam @ 4 μg/mL
[25] = strain of row r7, in the presence of Avibactam @ 4 μg/mL
[26] = strain of row r20, in the presence of Avibactam @ 4 μg/mL

SMILES: Nc1nc(/C(=N/OC2(C(=O)O)CCOCC2)C(=O)N[C@H]2CON(C3(C(=O)O)C[C@H](N4C(=O)c5cc(O)c(O)nc5C4=O)C(=O)O3)C2=O)cs1 (stereo partly drawn) [Cmpd 26, 4-({(Z)-[1-(2-amino-1,3-thiazol-4-yl)-2-({(4S)-2-[(4S)-2-carboxy-4-(2,3-dihydroxy-5,7-dioxo-5,7-dihydro-6H-pyrrolo[3,4-b]pyridin-6-yl)-5-oxooxolan-2-yl]-3-oxo-1,2-oxazolidin-4-yl}amino)-2-oxoethylidene]amino}oxy)oxane-4-carboxylic acid]
- MIC [1]: 4 µg/mL (≈ 5.67 µM)
- MIC [2]: 4 µg/mL (≈ 5.67 µM)
- MIC (Escherichia coli CMY-DHA; strain of row r26): 2 µg/mL (≈ 2.83 µM)
- MIC (Escherichia coli CMY-DHA; strain of row r27): 0.25 µg/mL (≈ 0.354 µM)
- MIC (Escherichia coli CMY-DHA; strain of row r28): 1 µg/mL (≈ 1.42 µM)
- MIC (Escherichia coli CMY-DHA; strain of row r29): 2 µg/mL (≈ 2.83 µM)
- MIC (Escherichia coli CMY-DHA; strain of row r30): 1 µg/mL (≈ 1.42 µM)
- MIC (Escherichia coli CMY-DHA; strain of row r31): 8 µg/mL (≈ 11.3 µM)
- MIC (Escherichia coli CMY-DHA; strain of row r34): 1 µg/mL (≈ 1.42 µM)
- MIC (Escherichia coli CMY-DHA; strain of row r35): 1 µg/mL (≈ 1.42 µM)
- MIC [3, 24]: 0.25 µg/mL
- MIC [3, 25]: 0.5 µg/mL
- MIC [3, 26]: <=0.008 μg/mL
- MIC [4]: 2 µg/mL (≈ 2.83 µM)
- MIC ([4]; strain of row r7): 4 µg/mL (≈ 5.67 µM)
- MIC ([4]; strain of row r20): 1 µg/mL (≈ 1.42 µM)
- MIC ([5]; strain of row r10): 0.06 µg/mL (≈ 0.085 µM)
- MIC ([5]; strain of row r11): 0.5 µg/mL (≈ 0.709 µM)
- MIC ([5]; strain of row r12): 2 µg/mL (≈ 2.83 µM)
- MIC ([5]; strain of row r13): 0.06 µg/mL (≈ 0.085 µM)
- MIC ([5]; strain of row r14): 0.12 µg/mL (≈ 0.17 µM)
- MIC ([5]; strain of row r15): 0.5 µg/mL (≈ 0.709 µM)
- MIC [6]: 1 µg/mL (≈ 1.42 µM)
- MIC (Escherichia coli SHV-12): 4 µg/mL (≈ 5.67 µM)
- MIC [7]: 2 µg/mL (≈ 2.83 µM)
- MIC [8]: 4 µg/mL (≈ 5.67 µM)
- MIC [9]: 2 µg/mL (≈ 2.83 µM)
- MIC (Escherichia coli CMY-2): 4 µg/mL (≈ 5.67 µM)
- MIC [10]: 0.25 µg/mL (≈ 0.354 µM)
- MIC [11]: 0.5 µg/mL (≈ 0.709 µM)
- MIC [12]: 2 µg/mL (≈ 2.83 µM)
- MIC [13]: 0.12 µg/mL (≈ 0.17 µM)
- MIC [14]: 0.5 µg/mL (≈ 0.709 µM)
- MIC [15]: 0.0149 µg/mL (≈ 0.0211 µM)
- MIC [16]: 0.0149 µg/mL (≈ 0.0211 µM)
- MIC [17]: 1 µg/mL (≈ 1.42 µM)
- MIC [18]: 0.25 µg/mL (≈ 0.354 µM)
- MIC [19]: 0.06 µg/mL (≈ 0.085 µM)
- MIC [20]: 0.0149 µg/mL (≈ 0.0211 µM)
- MIC [21]: 4 µg/mL (≈ 5.67 µM)
- MIC [22]: 0.5 µg/mL (≈ 0.709 µM)
- MIC [23]: 0.12 µg/mL (≈ 0.17 µM)

SMILES: CC(C)(O/N=C(\C(=O)N[C@@H]1C(=O)N2C(C(=O)[O-])=C(C[n+]3ccccc3)CS[C@H]12)c1csc(N)n1)C(=O)O [Ceftazidime, ceftazidime, reference compound]
- MIC [1]: 16 µg/mL (≈ 29.3 µM)
- MIC [2]: 16 µg/mL (≈ 29.3 µM)
- MIC (Escherichia coli CMY-DHA; strain of row r26): 32 µg/mL (≈ 58.5 µM)
- MIC (Escherichia coli CMY-DHA; strain of row r27): 32 µg/mL (≈ 58.5 µM)
- MIC (Escherichia coli CMY-DHA; strain of row r28): 8 µg/mL (≈ 14.6 µM)
- MIC (Escherichia coli CMY-DHA; strain of row r29): 32 µg/mL (≈ 58.5 µM)
- MIC (Escherichia coli CMY-DHA; strain of row r30): 4 µg/mL (≈ 7.32 µM)
- MIC (Escherichia coli CMY-DHA; strain of row r31): 32 µg/mL (≈ 58.5 µM)
- MIC (Escherichia coli CMY-DHA; strain of row r34): > 32 µg/mL
- MIC (Escherichia coli CMY-DHA; strain of row r35): > 32 µg/mL
- MIC [3, 24]: 0.25 µg/mL
- MIC [3, 25]: 0.5 µg/mL
- MIC [3, 26]: 0.03 µg/mL
- MIC [4]: 16 µg/mL (≈ 29.3 µM)
- MIC ([4]; strain of row r7): > 32 µg/mL
- MIC ([4]; strain of row r20): 16 µg/mL (≈ 29.3 µM)
- MIC ([5]; strain of row r10): 8 µg/mL (≈ 14.6 µM)
- MIC ([5]; strain of row r11): 8 µg/mL (≈ 14.6 µM)
- MIC ([5]; strain of row r12): 8 µg/mL (≈ 14.6 µM)
- MIC ([5]; strain of row r13): 4 µg/mL (≈ 7.32 µM)
- MIC ([5]; strain of row r14): 16 µg/mL (≈ 29.3 µM)
- MIC ([5]; strain of row r15): 16 µg/mL (≈ 29.3 µM)
- MIC [6]: > 32 µg/mL
- MIC (Escherichia coli SHV-12): 32 µg/mL (≈ 58.5 µM)
- MIC [7]: > 32 µg/mL
- MIC [8]: 4 µg/mL (≈ 7.32 µM)
- MIC [9]: 1 µg/mL (≈ 1.83 µM)
- MIC (Escherichia coli CMY-2): > 32 µg/mL
- MIC [10]: > 32 µg/mL
- MIC [11]: 0.5 µg/mL (≈ 0.915 µM)
- MIC [12]: 2 µg/mL (≈ 3.66 µM)
- MIC [13]: > 32 µg/mL
- MIC [14]: 0.25 µg/mL (≈ 0.457 µM)
- MIC [15]: 1 µg/mL (≈ 1.83 µM)
- MIC [16]: > 32 µg/mL
- MIC [17]: 8 µg/mL (≈ 14.6 µM)
- MIC [18]: 8 µg/mL (≈ 14.6 µM)
- MIC [19]: > 32 µg/mL
- MIC [20]: 0.5 µg/mL (≈ 0.915 µM)
- MIC [21]: 8 µg/mL (≈ 14.6 µM)
- MIC [22]: 0.25 µg/mL (≈ 0.457 µM)
- MIC [23]: > 32 µg/mL
